Results reported in publication PMC7918733, “Biological Profiling of Semisynthetic C19-Functionalized Ferruginol and Sugiol Analogues” (Antibiotics, 2021).
Like-named read-outs stand apart in the source and are kept apart here.

How the values were obtained:
[1] = tested on: BJ; assay: Cytotoxicity on mammalian cell lines; assay type: cell-based; details: Homo sapiens, read-out: BJ EC50
Experimental: (§1) Assays were performed by using previously described DNA stain-based assay and methods, including cytotoxicity assays.

[2] = tested on: RAJI; assay: Cytotoxicity on mammalian cell lines; assay type: cell-based; details: Homo sapiens, read-out: RAJI EC50
Experimental: as §1

[3] = tested on: HepG2; assay: Cytotoxicity on mammalian cell lines; assay type: cell-based
Experimental: as §1

[4] = tested on: HEK293; assay: Cytotoxicity on mammalian cell lines; assay type: cell-based
Experimental: as §1

[5] = tested on: A549 (Lung); details: cited from earlier work
[6] = tested on: P. falciparum K1 strain; assay: Antiplasmodial DNA stain-based growth assay; assay type: cell-based; details: Plasmodium falciparum, K1, 72 h, read-out: P. falciparum K1 EC50
Experimental: as §1

[7] = tested on: P. falciparum 3D7 strain; assay: Antiplasmodial DNA stain-based growth assay; assay type: cell-based; details: Plasmodium falciparum, 3D7, 72 h, read-out: P. falciparum 3D7 EC50
Experimental: as §1

[8] = tested on: WiDr (Colon); details: C18-congeners; cited from earlier work
[9] = tested on: HBL-100 (Breast); details: C18-congeners; cited from earlier work
[10] = tested on: L. donovani promastigotes; details: C18-congeners, read-out: L. donovani IC50 ± SD; cited from earlier work
[11] = tested on: L. infantum promastigotes; design: method as in PMID 30840453; details: C18-congeners, read-out: L. infantum IC50 ± SD; cited from earlier work
[12] = tested on: L. amazonensis promastigotes; design: method as in PMID 30840453; details: C18-congeners, read-out: L. amazonensis IC50 ± SD; cited from earlier work
[13] = tested on: L. guyanensis promastigotes; design: method as in PMID 30840453; details: C18-congeners, read-out: L. guyanensis IC50 ± SD; cited from earlier work
[14] = tested on: Macrophages J774; details: read-out: Macrophages J774 CC50; C18-congeners; cited from earlier work
[15] = tested on: T-47D (Breast); details: C18-congeners; cited from earlier work
[16] = biological target: T1, GABAA receptor subtype (α1β2γ2S) (Homo sapiens, UniProt P14867+P18507+P47870); design: expressed in transfected cells; host or cells: Xenopus laevis oocytes; details: C18-congeners, cited from earlier work
T1 sequence (P14867 28-456): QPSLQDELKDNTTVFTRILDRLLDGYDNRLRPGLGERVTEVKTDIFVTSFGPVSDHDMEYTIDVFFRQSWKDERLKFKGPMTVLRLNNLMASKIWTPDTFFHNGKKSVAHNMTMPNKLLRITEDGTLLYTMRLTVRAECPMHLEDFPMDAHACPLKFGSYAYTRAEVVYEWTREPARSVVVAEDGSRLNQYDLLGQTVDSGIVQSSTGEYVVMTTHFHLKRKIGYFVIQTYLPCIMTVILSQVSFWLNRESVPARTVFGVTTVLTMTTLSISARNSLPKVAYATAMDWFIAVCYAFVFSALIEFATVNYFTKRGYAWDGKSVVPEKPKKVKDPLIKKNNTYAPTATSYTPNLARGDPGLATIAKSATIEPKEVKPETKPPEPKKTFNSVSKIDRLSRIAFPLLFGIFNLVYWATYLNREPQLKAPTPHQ
T1 sequence (P47870 26-512): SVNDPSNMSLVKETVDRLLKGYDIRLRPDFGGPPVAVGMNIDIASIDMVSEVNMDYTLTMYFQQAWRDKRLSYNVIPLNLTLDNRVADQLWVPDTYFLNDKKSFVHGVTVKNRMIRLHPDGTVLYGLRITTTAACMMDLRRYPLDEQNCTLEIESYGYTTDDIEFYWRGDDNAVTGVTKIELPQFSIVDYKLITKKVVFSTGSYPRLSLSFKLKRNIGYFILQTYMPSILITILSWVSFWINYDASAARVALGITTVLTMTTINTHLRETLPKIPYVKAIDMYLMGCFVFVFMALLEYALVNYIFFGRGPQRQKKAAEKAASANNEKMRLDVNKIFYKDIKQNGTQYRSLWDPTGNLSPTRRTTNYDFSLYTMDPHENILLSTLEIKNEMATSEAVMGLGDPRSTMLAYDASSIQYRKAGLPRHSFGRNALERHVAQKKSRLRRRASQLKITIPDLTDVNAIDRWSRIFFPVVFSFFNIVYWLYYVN
T1 sequence (P18507 40-467 isoform P18507-1 limits assumed): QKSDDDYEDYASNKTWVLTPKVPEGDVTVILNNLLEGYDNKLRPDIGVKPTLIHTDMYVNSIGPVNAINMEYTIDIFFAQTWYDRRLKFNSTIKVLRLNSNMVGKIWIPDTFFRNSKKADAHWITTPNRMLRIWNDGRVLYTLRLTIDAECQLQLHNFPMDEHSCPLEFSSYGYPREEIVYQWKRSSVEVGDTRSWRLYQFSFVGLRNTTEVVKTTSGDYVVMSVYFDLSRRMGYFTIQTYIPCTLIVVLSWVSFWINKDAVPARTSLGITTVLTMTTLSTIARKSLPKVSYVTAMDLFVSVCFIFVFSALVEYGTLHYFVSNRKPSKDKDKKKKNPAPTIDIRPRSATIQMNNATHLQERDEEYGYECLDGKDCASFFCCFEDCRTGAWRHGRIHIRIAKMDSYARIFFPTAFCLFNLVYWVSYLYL

[17] = tested on: HeLa (Cervix); details: C18-congeners; cited from earlier work
[18] = tested on: SW1573 (Lung); details: C18-congeners; cited from earlier work
[19] = biological target: T1, GABAA receptor subtype (α1β2γ2S); assay: Two-microelectrode voltage-clamp in Xenopus laevis oocytes
Experimental: All molecules were tested at concentrations of 10, 100 μM and compared with dehydroabietic acid (DHA) (3) as a reference [16].

[20] = tested on: WiDr (Colon); assay: Antiproliferative SRB assay; assay type: cell-based, human; details: mean ± SD of at least two experiments
Experimental: (§2) Cells, cultures and the activity test of abietane analogs followed reported methods. The SRB assay was performed as previously described, and the antiproliferative activity was given as GI50 values, which were calculated according to NCI formulas.

[21] = tested on: SW1573 (Lung); assay: Antiproliferative SRB assay; assay type: cell-based, human; details: mean ± SD of at least two experiments
Experimental: as §2

[22] = tested on: A549 (Lung); assay: Antiproliferative SRB assay; assay type: cell-based, human; details: mean ± SD of at least two experiments
Experimental: as §2

[23] = tested on: L. amazonensis amastigotes; assay: Intracellular amastigote assay (fluorometric test); assay type: cell-based; details: Leishmania amazonensis, read-out: L. amazonensis IC50 ± SD
[24] = tested on: L. infantum amastigotes; assay: Intracellular amastigote assay (fluorometric test); assay type: cell-based; details: Leishmania infantum, read-out: L. infantum IC50 ± SD
[25] = tested on: L. guyanensis promastigotes; assay: Antileishmanial in vitro promastigote assay; details: Leishmania guyanensis, read-out: L. guyanensis IC50 ± SD
Experimental: (§3) The compounds were additionally studied in a panel of mammalian cell lines to determine cytotoxicity.
(§4) The parasites, culture procedure and the activity of functionalized abietane analogs on Leishmania promastigotes were performed according to the method previously reported by us [28], while the intracellular amastigote assay was performed on L. amazonensis and L. infantum according to the fluorometric test [29]. The J774 cell culture and the cytotoxicity assay was carried out according to our previously described method [30].

[26] = tested on: L. amazonensis promastigotes; assay: Antileishmanial in vitro promastigote assay; details: Leishmania amazonensis, read-out: L. amazonensis IC50 ± SD
Experimental: as §3, §4

[27] = tested on: L. infantum promastigotes; assay: Antileishmanial in vitro promastigote assay; details: Leishmania infantum, read-out: L. infantum IC50 ± SD
Experimental: as §3, §4

[28] = in vitro; details: mouse, Macrophages J774 CC50
[29] = tested on: L. donovani promastigotes; assay: Antileishmanial in vitro promastigote assay; details: Leishmania donovani, read-out: L. donovani IC50 ± SD
Experimental: as §3, §4

**Q.** With CC(C)=CCC[C@]1(C)C=Cc2c(O)c3c(c(CC=C(C)C)c2O1)O[C@]12C(=C[C@@H]4C[C@H]1C(C)(C)O[C@@]2(C/C=C(/C)C(=O)O)C4=O)C3=O [Gambogic acid, reference compound] as the compound, how does the EC50 [1] read?
**A.** The EC50 was 0.21 µM.

**Q.** What about the EC50 [2] of the same compound?
**A.** The EC50 was 0.24 µM.

**Q.** And the EC50 ([3]; Homo sapiens, HepG2; read-out: HepG2 EC50)?
**A.** The EC50 was greater than 25 µM.

**Q.** And the EC50 ([4]; Homo sapiens, HEK293; read-out: HEK293 EC50)?
**A.** The EC50 was 0.21 µM.

**Q.** With CC(C)c1cc2c(cc1O)[C@@]1(C)CCCC(C)(C)[C@@H]1CC2=O [Compound 2, sugiol] as the compound, how does the GI50 [5] read?
**A.** The GI50 was 79.8 ± 2.2 µM.

**Q.** With CCN(CC)CCCC(C)Nc1ccnc2cc(Cl)ccc12 (stereo not shown) [Chloroquine, reference compound] as the compound, how does the EC50 [1] read?
**A.** Its EC50 is greater than 25 µM.

**Q.** What about the EC50 [2] of the same compound?
**A.** The EC50 was greater than 25 µM.

**Q.** What about the EC50 ([3]; Homo sapiens, HepG2, read-out: HepG2 EC50) of the same compound?
**A.** Its EC50 is greater than 25 µM.

**Q.** What about the EC50 ([4]; Homo sapiens, HEK293, read-out: HEK293 EC50) of the same compound?
**A.** Its EC50 is greater than 25 µM.

**Q.** What about the EC50 [6] of the same compound?
**A.** Its EC50 is 0.69 µM.

**Q.** And the EC50 [7]?
**A.** Its EC50 is 0.023 µM.

**Q.** For COC(=O)[C@]1(C)CCC[C@]2(C)c3cc(OC(C)=O)c(C(C)C)cc3CC[C@@H]12 [Compound 10b], which GI50 [8] is on record?
**A.** The GI50 was 16 ± 2.5 µM.

**Q.** What about the GI50 ([5]; C18-congeners) of the same compound?
**A.** Its GI50 is 11 ± 1.8 µM.

**Q.** And the GI50 [9]?
**A.** Its GI50 is 15 ± 3.9 µM.

**Q.** What about the IC50 [10] of the same compound?
**A.** Its IC50 is 8.1 ± 0.7 µM.

**Q.** And the IC50 [11]?
**A.** Its IC50 is 1.3 ± 0.1 µM.

**Q.** And the IC50 [12]?
**A.** The IC50 was 3.2 ± 0.3 µM.

**Q.** What about the IC50 [13] of the same compound?
**A.** The IC50 was 5.5 ± 0.7 µM.

**Q.** And the CC50 [14]?
**A.** The CC50 was 26.5 ± 2.7 µM.

**Q.** And the GI50 [15]?
**A.** The GI50 was 14 ± 2.9 µM.

**Q.** What about the “IGABA Potentiation of 10 µM (%)” value [16] of the same compound?
**A.** Its value is 5.1 ± 2.1%.

**Q.** What about the “IGABA Potentiation of 100 µM (%)” value [16] of the same compound?
**A.** The value was 26.3 ± 8.9%.

**Q.** And the GI50 [17]?
**A.** Its GI50 is 4.4 ± 1.1 µM.

**Q.** And the GI50 [18]?
**A.** Its GI50 is 12 ± 3.2 µM.

**Q.** For COC(=O)[C@]1(C)CCC[C@]2(C)c3cc(O)c(C(C)C)cc3CC[C@@H]12 [Compound 12b], which GI50 [8] is on record?
**A.** Its GI50 is 23 ± 4.4 µM.

**Q.** And the GI50 ([5]; C18-congeners)?
**A.** Its GI50 is 9.4 ± 2.6 µM.

**Q.** What about the GI50 [9] of the same compound?
**A.** Its GI50 is 9.7 ± 2.7 µM.

**Q.** And the IC50 [10]?
**A.** The IC50 was 9.21 ± 0.06 µM.

**Q.** And the IC50 [11]?
**A.** Its IC50 is 5 ± 0.3 µM.

**Q.** What about the IC50 [12] of the same compound?
**A.** Its IC50 is 3.9 ± 0.1 µM.

**Q.** And the IC50 [13]?
**A.** Its IC50 is 5.9 ± 1.1 µM.

**Q.** What about the CC50 [14] of the same compound?
**A.** Its CC50 is 34.2 ± 3.1 µM.

**Q.** And the GI50 [15]?
**A.** The GI50 was 19 ± 3.8 µM.

**Q.** What about the “IGABA Potentiation of 10 µM (%)” value [16] of the same compound?
**A.** The value was 23.7 ± 9.6%.

**Q.** What about the “IGABA Potentiation of 100 µM (%)” value [16] of the same compound?
**A.** Its value is 378.0 ± 65.6%.

**Q.** And the GI50 [17]?
**A.** Its GI50 is 5.8 ± 0.5 µM.

**Q.** What about the GI50 [18] of the same compound?
**A.** Its GI50 is 11 ± 2 µM.

**Q.** What does the source list for CC(C)c1ccc2c(c1)CC[C@H]1[C@](C)(C(=O)O)CCC[C@]21C [Compound 3, dehydroabietic acid, reference compound]?
**A.** activation at 10 µM ([19]; read-out: IGABA Potentiation of 10 µM (%)): 192 ± 10%; activation at 100 µM ([19]; read-out: IGABA Potentiation of 100 µM (%)): 789 ± 82%

**Q.** What does the source list for N.N.[Cl][Pt][Cl] [cisplatin, reference compound]?
**A.** GI50 [20]: 23 ± 4.3 µM; GI50 [21]: 2.7 ± 0.4 µM; GI50 [22]: 4.9 ± 0.2 µM

**Q.** With CCCCCCCCCCCCCCCCOP(=O)([O-])OCC[N+](C)(C)C [Miltefosine, reference compound] as the compound, how does the IC50 [23] read?
**A.** The IC50 was 16.5 ± 1.9 µM.

**Q.** What about the IC50 [24] of the same compound?
**A.** Its IC50 is 58.1 ± 4.4 µM.

**Q.** What about the IC50 [25] of the same compound?
**A.** Its IC50 is 18.2 ± 0.6 µM.

**Q.** And the IC50 [26]?
**A.** The IC50 was 47.7 ± 5 µM.

**Q.** And the IC50 [27]?
**A.** Its IC50 is 3.4 ± 0.6 µM.

**Q.** And the CC50 [28]?
**A.** The CC50 was 136 ± 1.4 µM.

**Q.** And the IC50 [29]?
**A.** Its IC50 is 0.15 ± 0.02 µM.

**Q.** What does the source list for COC(=O)[C@]1(C)CCC[C@]2(C)c3cc(O)c(C(C)C)cc3C(=O)C[C@@H]12 [Compound 16b]?
**A.** GI50 [8]: > 100 µM; GI50 ([5]; C18-congeners): > 100 µM; GI50 [9]: > 100 µM; CC50 [14]: 154 ± 49.3 µM; GI50 [15]: > 100 µM; IGABA Potentiation of 10 µM (%) [16]: 37.4 ± 12.7%; IGABA Potentiation of 100 µM (%) [16]: 242.4 ± 46.0%; GI50 [17]: > 100 µM; GI50 [18]: > 100 µM
